Measurements taken from patent publication US20200345011A1, “METHOD OF […] GROWTH IN SOIL” (CH2O Incorporated, priority 2008, published 2020).

Legend:
[1] = test system: weed and undesirable plant growth; assay: Weed growth suspension in treated, plastic-covered soil beds; format: in vivo; conditions: after six days of treatment
Description: (§1) Water (27.5%), PBTC (17.5%) and hydrochloric acid (HCl) (55%) were admixed to form a first solution. Water (85%) and sodium chlorite (15%) were admixed to form a second solution. The first and second solutions were combined to form a combined solution. Sufficient contact time was allowed in the mixing vessel 12 to convert a substantial portion of the sodium chlorite solution into chlorine dioxide. The combined solution can also be referred to as chlorine dioxide. For test purposes, five soil beds were prepared. These beds were covered with sheet plastic. In the first bed, 150 ppm of chlorine dioxide was added irrigation water and the mixture was introduced to the soil bed until the soil bed was saturated. In the second soil bed, 350 ppm of chlorine dioxide was added to irrigation water and the mixture was introduced into the second soil bed until the second soil bed was saturated. The third soil bed received 750 ppm of chlorine dioxide in irrigation water until that bed was saturated. The fourth soil bed received a mixture of 950 ppm of chlorine dioxide in irrigation water until that soil bed was saturated. The fifth soil bed was treated with methyl-bromide at E.P.A. label recommended dose rates.

[2] = Decomposition in soil and consequences to the environment; conditions: soil bed treatment
Description: as §1

[3] = Crop yield and fruit quality from treated soils; format: in vivo
Description: Water (27.5%), PBTC (17.5%) and hydrochloric acid (HCl) (55%) were admixed to form a first solution. Water (85%) and sodium chlorite (15%) were admixed to form a second solution. The first and second solutions were combined to form a combined solution. Sufficient contact time was allowed in the mixing vessel 12 to convert a substantial portion of the sodium chlorite solution into chlorine dioxide. The combined solution can also be referred to as chlorine dioxide. For test purposes, five soil beds were prepared. These beds were covered with sheet plastic. […] […] […] […] The fifth soil bed was treated with methyl-bromide at E.P.A. label recommended dose rates.

[4] = soil treated with methyl bromide, used as at EPA label requirements

| Compound | Suspension of weed and undesirable plant growth ([1]; all four dosages (150, 350, 750, 950 ppm in irrigation water, bed saturated)) | Consequences to the environment [2] | Crates/Acres ([3]; 75 ppm solution) | Fruit Grams ([3]; 75 ppm solution) | Marketable Crates/Acre ([3]; 75 ppm solution) | Crates/Acres ([3]; 175 ppm solution) | Fruit Grams ([3]; 175 ppm solution) | Marketable Crates/Acre ([3]; 175 ppm solution) | Crates/Acres ([3]; 375 ppm solution) | Fruit Grams ([3]; 375 ppm solution) | Marketable Crates/Acre ([3]; 375 ppm solution) | Crates/Acres ([3]; 475 ppm solution) | Fruit Grams ([3]; 475 ppm solution) | Marketable Crates/Acre ([3]; 475 ppm solution) | Yield performance of treated soils versus methyl bromide treated soils ([3]; comparison in words) | Yield at the higher chlorine dioxide levels ([3]; higher versus lower chlorine dioxide levels, in words) | Effectiveness as a fumigant ([1]; E.P.A. label recommended dose rates) | Crates/Acres [3, 4] | Fruit Grams [3, 4] | Marketable Crates/Acre [3, 4] |
| --- | --- | --- | --- | --- | --- | --- | --- | --- | --- | --- | --- | --- | --- | --- | --- | --- | --- | --- | --- | --- |
| [O][Cl+][O-] [Chlorine Dioxide, chlorine dioxide] | suspend weed and undesirable plant growth entirely | without any negative consequences to the environment | 495 Crates/Acres | 25.5 Grams | 431 Crates/Acre | 483 Crates/Acres | 26.6 Grams | 435 Crates/Acre | 429 Crates/Acres | 27.1 Grams | 572 Crates/Acre | 651 Crates/Acres | 28.9 Grams | 605 Crates/Acre | exceeded the methyl bromide treated soils | greater yields | – | – | – | – |
| CBr [Methyl Bromide, Methyl-bromide, reference compound] | – | had an adverse effect on the environment | – | – | – | – | – | – | – | – | – | – | – | – | – | – | effective as a fumigant | 455 Crates/Acres | 32.8 Grams | 428 Crates/Acre |
